Measurements: patent US12414952B2 (Merck Sharp & Dohme LLC, priority 2018, dated 2025)

Target: human A2a adenosine receptor (Homo sapiens (Human), UniProt P29274)
Test: A2a binding affinity using radioligand binding, Method (A)
Details: Method (A): [3H]SCH58261 filtration binding
Source text: The A2a receptor affinity binding assay measured the amount of binding of a tritiated ligand with high affinity for the A2a adenosine receptor to membranes made from HEK293 or CHO cells recombinantly expressing the human A2a adenosine receptor, in the presence of varying concentrations of a compound of the invention. The data were generated using either filtration binding or a homogenous scintillation proximity assay (SPA).
Method (A): Measurement of A2a Binding Affinity Using Radioligand Binding
148 μL (5 μg/mL) membranes (Perkin Elmer, Cat. No. RBHA2aM400UA) and 2 μL compounds of the invention to be tested (test compound) were transferred to individual wells of a 96-well polypropylene assay plate and incubated for 15 to 30 min at room temperature. [^3H] SCH58261 ((7-(2-phenylethyl)-5-amino-2-(2-furyl)-pyrazolo-[4,3-e]-1,2,4-triazolo[1,5-c]pyrimidine)) was diluted in assay buffer (50 mM Tris pH 7.4, 10 mM MgCl2, 0.005% Tween20) to a concentration of 4 nM and 50 μL transferred to each well of the assay plate. […] The assay plate was incubated at room temperature for 60 min with agitation. […] Filtering was achieved by aspirating the contents of the assay plate for 5 sec, then washing and aspirating the contents three times with ice-cooled wash buffer (50 mM Tris-HCl pH 7.4, 150 mM NaCl) and allowing the vacuum manifold to dry the plate for […]. The filter plate was incubated for at least 1 h at 55° C. and allowed to dry. The bottom of the filter plate was sealed with backing tape. […] The plate was incubated for at least 20 min, and then the amount of radioactivity remaining in each well was determined using a TopCount® (Perkin Elmer) scintillation counter. After normalization to total and non-specific binding, the percent effect at each compound concentration was calculated. The plot of percent effect versus the log of compound concentration was analyzed electronically using a 4-parameter logistic fit based on the Levenberg-Marquardt algorithm to generate IC50 values.

Sequence of human A2a adenosine receptor (P29274 whole entry): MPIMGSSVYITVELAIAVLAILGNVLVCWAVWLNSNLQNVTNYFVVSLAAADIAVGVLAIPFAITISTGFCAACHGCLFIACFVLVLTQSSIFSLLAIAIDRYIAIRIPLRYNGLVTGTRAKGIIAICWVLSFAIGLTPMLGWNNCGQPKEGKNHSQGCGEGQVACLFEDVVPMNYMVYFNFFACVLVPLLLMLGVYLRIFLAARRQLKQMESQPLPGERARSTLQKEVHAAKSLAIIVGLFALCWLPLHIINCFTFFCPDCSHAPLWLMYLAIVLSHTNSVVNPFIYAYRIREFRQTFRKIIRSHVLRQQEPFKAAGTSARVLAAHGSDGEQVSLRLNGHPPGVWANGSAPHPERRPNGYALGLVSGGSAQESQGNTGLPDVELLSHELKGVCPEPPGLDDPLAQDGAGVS

Cc1c(-c2ncco2)nc(N)c2nc(Cc3ccccc3)nn12 [Example 20.2, 2-benzyl-5-methyl-6-(oxazol-2-yl)-[1,2,4]triazolo[1,5-a]pyrazin-8-amine]
IC50: 0.5 nM

Cc1c(-c2ccccc2F)nc(N)c2nc(Cc3ccccc3)nn12 [Example 3.6]
IC50: 6.4 nM

Cc1nc2c(N)nc(-c3ccc(F)cc3)cn2n1 [Example 2.6]
IC50: 523 nM

Nc1nc(-c2cc(F)ccc2F)cn2nc(Cc3ccccc3)nc12 [Example 2.7]
IC50: 2.2 nM

COc1ccc(-c2nc(N)c3nc(Cc4ccccc4)nn3c2C)cc1F [Example 3.8]
IC50: 20.6 nM

Cc1c(-c2ncco2)nc(N)n2nc(CCN3CCc4c(ncn4C4CCCC4)C3)nc12 [Example 17.18, 2-(2-(1-cyclopentyl-1,4,6,7-tetrahydro-5H-imidazo[4,5-c]pyridin-5-yl)ethyl)-8-methyl-7-(oxazol-2-yl)-[1,2,4]triazolo[1,5-c]pyrimidin-5-amine]
IC50: 0.6 nM

Cc1nc2c(N)nc(-c3ccccc3)cn2n1 [Example 2.5]
IC50: 112 nM

Cc1c(-c2ccc(F)cc2)nc(N)n2nc(CCN3CCn4c(cnc4C(C)C)C3)nc12 [Example 2.17]
IC50: 124 nM

Cc1c(-c2ncco2)nc(N)n2nc(Cn3cc(CCC(C)(C)O)cn3)nc12 [Example 21.3, 4-(1-((5-amino-8-methyl-7-(oxazol-2-yl)-[1,2,4]triazolo[1,5-c]pyrimidin-2-yl)methyl)-1H-pyrazol-4-yl)-2-methylbutan-2-ol]
IC50: 21.5 nM

Cc1c(-c2ccc(F)cc2)nc(N)c2nc(Cc3ccccc3)nn12 [Example 20.3, 2-benzyl-6-(4-fluorophenyl)-5-methyl-[1,2,4]triazolo[1,5-a]pyrazin-8-amine]
IC50: 40 nM

Cc1c(-c2ncccn2)nc(N)c2nc(Cc3ccccc3)nn12 [Example 1.4]
IC50: 3.6 nM

Nc1nc(-c2ccccc2)cc2nc(CCN3CCn4c(cnc4C4CCC4)C3)nn12 [Example 17.27, 2-(2-(3-cyclobutyl-5,6-dihydroimidazo[1,5-a]pyrazin-7(8H)-yl)ethyl)-7-phenyl-[1,2,4]triazolo[1,5-c]pyrimidin-5-amine]
IC50: 39.9 nM

Cc1c(-c2cc(F)ccc2F)nc(N)c2nc(Cc3ccccc3)nn12 [Example 3.4]
IC50: 1.1 nM

COc1ncc(-c2nc(N)c3nc(Cc4ccccc4)nn3c2C)cc1F [Example 3.13]
IC50: 40 nM

Nc1nc(-c2ncco2)cc2nc(CCN3CCN(CC4CC4)C(=O)C3)nn12 [Example 17.23, 4-(2-(5-amino-7-(oxazol-2-yl)-[1,2,4]triazolo[1,5-c]pyrimidin-2-yl)ethyl)-1-(cyclopropylmethyl)piperazin-2-one]
IC50: 122 nM

Cc1c(-c2ccc(Cl)c(F)c2)nc(N)c2nc(Cc3ccccc3)nn12 [Example 3.16]
IC50: 73.9 nM

Cc1c(-c2cccc(F)c2)nc(N)c2nc(Cc3ccccc3)nn12 [Example 3.3, 2-benzyl-6-(3-fluorophenyl)-5-methyl-[1,2,4]triazolo[1,5-a]pyrazin-8-amine]
IC50: 1.1 nM

Nc1nc(-c2ncco2)cc2nc(CCN3CC(F)(F)C3)nn12 [Example 17.20, 2-(2-(3,3-difluoroazetidin-1-yl)ethyl)-7-(oxazol-2-yl)-[1,2,4]triazolo[1,5-c]pyrimidin-5-amine]
IC50: 90.9 nM

Cc1c(-c2ccc(Cl)cc2F)nc(N)c2nc(Cc3ccccc3)nn12 [Example 3.21]
IC50: 168 nM

Cc1nc2c(o1)CN(CCc1nc3c(C)c(-c4ncco4)nc(N)n3n1)C2 [Example 1.7]
IC50: 7.4 nM

Nc1nc(-c2ccc(F)cc2)cn2nc(Cc3ccccc3)nc12 [Example 2.3, 2-benzyl-6-(4-fluorophenyl)-[1,2,4]triazolo[1,5-a]pyrazin-8-amine]
IC50: 2.5 nM

Nc1nc(-c2ncco2)c(C2CC2)n2nc(Cc3ccccc3)nc12 [Example 20.4, 2-benzyl-5-cyclopropyl-6-(oxazol-2-yl)-[1,2,4]triazolo[1,5-a]pyrazin-8-amine]
IC50: 3.2 nM

Cc1c(-c2ncco2)nc(N)n2nc(Cc3ccccc3)nc12 [Example 19.3, 2-benzyl-8-methyl-7-(oxazol-2-yl)-[1,2,4]triazolo[1,5-c]pyrimidin-5-amine]
IC50: 0.5 nM

Cc1nc2cc(-c3ncco3)nc(N)n2n1 [Example 1.9]
IC50: 534 nM

Cc1c(-c2ccc(Cl)c(Cl)c2)nc(N)c2nc(Cc3ccccc3)nn12 [Example 3.12]
IC50: 38 nM

Cc1nc2c(N)nc(-c3ncco3)cn2n1 [Example 1.5]
IC50: 909 nM

Cc1c(-c2nccs2)nc(N)c2nc(Cc3ccccc3)nn12 [Example 1.3]
IC50: 1.3 nM

Cc1c(-c2ncco2)nc(N)n2nc(CCN3CCc4ncn(C5CCCC5)c4C3)nc12 [Example 17.19, 2-(2-(3-cyclopentyl-3,4,6,7-tetrahydro-5H-imidazo[4,5-c]pyridin-5-yl)ethyl)-8-methyl-7-(oxazol-2-yl)-[1,2,4]triazolo[1,5-c]pyrimidin-5-amine]
IC50: 3 nM

Cc1cc(-c2nc(N)c3nc(Cc4ccccc4)nn3c2C)ccn1 [Example 3.15]
IC50: 54.8 nM

Cc1c(-c2ncco2)nc(N)c2nc(Cc3ccccc3C(F)(F)F)nn12 [Example 7.3, 5-methyl-6-(oxazol-2-yl)-2-(2-(trifluoromethyl)benzyl)-[1,2,4]triazolo[1,5-a]pyrazin-8-amine]
IC50: 0.5 nM

Nc1nc(-c2ncco2)cc2nc(CCN3CCc4nccnc4C3)nn12 [Example 17.25, 2-(2-(7,8-dihydropyrido[3,4-b]pyrazin-6(5H)-yl)ethyl)-7-(oxazol-2-yl)-[1,2,4]triazolo[1,5-c]pyrimidin-5-amine]
IC50: 402 nM

Cc1c(-c2ccccc2)nc(N)c2nc(Cc3ccccc3)nn12 [Example 3.5]
IC50: 2.2 nM

Cc1c(-c2ccc(F)cc2F)nc(N)c2nc(Cc3ccccc3)nn12 [Example 3.17]
IC50: 82.2 nM

Cc1c(-c2cc(C(F)(F)F)nn2C)nc(N)c2nc(Cc3ccccc3)nn12 [Example 3.45]
IC50: 17.8 nM

Cc1c(-c2ncco2)nc(N)n2nc(CCc3ccc4c(c3)nnn4C3CC(F)(F)C3)nc12 [Example 22.3, 2-(2-(1-(3,3-Difluorocyclobutyl)-1H-benzo[d][1,2,3]triazol-5-yl)ethyl)-8-methyl-7-(oxazol-2-yl)-[1,2,4]triazolo[1,5-c]pyrimidin-5-amine]
IC50: 21.5 nM

COc1ccc(-c2nc(N)c3nc(Cc4ccccc4)nn3c2C)cc1Cl [Example 3.7]
IC50: 11 nM

Cc1cc2n(n1)CCN(CCc1nc3cc(-c4ncco4)nc(N)n3n1)C2 [Example 17.24, 2-(2-(2-methyl-6,7-dihydropyrazolo[1,5-a]pyrazin-5(4H)-yl)ethyl)-7-(oxazol-2-yl)-[1,2,4]triazolo[1,5-c]pyrimidin-5-amine]
IC50: 319 nM

CC(C)c1ncc2n1CCN(CCc1nc3c(N)nc(-c4ncco4)cn3n1)C2 [Example 17.26, 2-(2-(3-isopropyl-5,6-dihydroimidazo[1,5-a]pyrazin-7(8H)-yl)ethyl)-6-(oxazol-2-yl)-[1,2,4]triazolo[1,5-a]pyrazin-8-amine]
IC50: 629 nM

Nc1nc(-c2ncco2)cc2nc(CCN3CCc4[nH]ncc4C3)nn12 [Example 17.21, 7-(oxazol-2-yl)-2-(2-(1,4,6,7-tetrahydro-5H-pyrazolo[4,3-c]pyridin-5-yl)ethyl)-[1,2,4]triazolo[1,5-c]pyrimidin-5-amine]
IC50: 450 nM

Cc1c(-c2cc(F)ccc2F)nc(N)c2nc(Cc3ccc(C(F)(F)F)cc3)nn12 [Example 7.4, 6-(2,5-difluorophenyl)-5-methyl-2-(4-(trifluoromethyl)benzyl)-[1,2,4]triazolo[1,5-a]pyrazin-8-amine]
IC50: 15.3 nM

Cc1c(-c2ccc(F)c(F)c2)nc(N)c2nc(Cc3ccccc3)nn12 [Example 3.10]
IC50: 27.9 nM

Cc1c(-c2cnn(C(F)(F)F)c2)nc(N)c2nc(Cc3ccccc3)nn12 [Example 3.44]
IC50: 490 nM

Nc1nc(-c2ccccc2)cn2nc(Cc3ccccc3)nc12 [Example 2.4]
IC50: 1.6 nM

Cc1c(-c2cncc(F)c2)nc(N)c2nc(Cc3ccccc3)nn12 [Example 3.9]
IC50: 24.5 nM

Nc1nc(-c2ccccc2)cc2nc(CCO)nn12 [Example 14.3, 2-(5-amino-7-phenyl-[1,2,4]triazolo[1,5-c]pyrimidin-2-yl)ethan-1-ol]
IC50: 493 nM

Nc1nc(-c2ncco2)cn2nc(Cc3ccccc3)nc12 [Example 1.2, 2-benzyl-6-(oxazol-2-yl)-[1,2,4]triazolo[1,5-a]pyrazin-8-amine]
IC50: 3.1 nM

Cc1nc2c(o1)CN(CCc1nc3c(C)c(-c4cnco4)nc(N)n3n1)C2 [Example 2.25]
IC50: 26.7 nM

Cc1c(-c2cccc(C(F)(F)F)n2)nc(N)c2nc(Cc3ccccc3)nn12 [Example 3.20]
IC50: 157 nM

COc1cccc(-c2nc(N)c3nc(Cc4ccccc4)nn3c2C)c1F [Example 3.11]
IC50: 28.5 nM

Cc1c(-c2ccc(Cl)cc2)nc(N)c2nc(Cc3ccccc3)nn12 [Example 3.18]
IC50: 84.4 nM

Cc1c(-c2ccc(OC(F)F)cc2)nc(N)c2nc(Cc3ccccc3)nn12 [Example 3.19]
IC50: 121 nM

COc1ccc(-c2nc(N)c3nc(Cc4ccccc4)nn3c2C)c(F)c1 [Example 3.14]
IC50: 40.6 nM
